Measured values reported in patent EP4810065A1, “COMBINED USE OF ANTIBODY-DRUG CONJUGATE AND POLY(ADENOSINE D[…]) POLYMERASE INHIBITOR” (Jiangsu Hansoh Pharmaceutical Group Co., Ltd., priority 2023, dated 2025).

What was measured:
[1] = tested on: human ovarian cancer OV0243; assay: OV0243 human ovarian cancer PDX subcutaneous xenograft model; format: in vivo, BALB/c nude mice; settings: for TGI (%): D27, tumor regression formula
Protocol: • Drug A was prepared by dilution with normal saline, and drug B was prepared using 0.5% HPMC; • OV0243 (mild cachexia), human ovarian cancer tumor tissue, was provided by Crown Bioscience (Beijing) Inc. • BALB/c nude mice, female, body weight 16-22 g, were purchased from Jiangsu Jicui Yaokang Biotechnology Co., Ltd.
OV0243 human ovarian cancer tissue was uniformly cut into tumor pieces with a diameter of 2-3 mm and inoculated subcutaneously at the right front scapular region of BALB/c nude mice, and tumor growth was regularly observed. When the average tumor volume reached 100-150 mm^3, random grouping was performed based on the tumor size and mouse body weight in accordance with Table 4-1. The tumor diameter was measured twice a week with a vernier caliper, and the calculation formula for tumor volume (V) was:V = 1/2×a×b^2 where a, b respectively indicate length and width.
(§1) The experimental indicator was to examine the effect of the drug on tumor growth, and the specific indicator was the tumor growth inhibition rate TGI (%).
(§2) Calculation of TGI (%): When there was no tumor regression, TGI (%) = [1 - (average tumor volume of a certain treatment group at the end of administration - average tumor volume of that treatment group at grouping)/(average tumor volume of the vehicle control group at the end of treatment - average tumor volume of the vehicle control group at grouping)] × 100%. When there was tumor regression, TGI (%) = [1 - (average tumor volume of a certain treatment group at the end of administration - average tumor volume of that treatment group at grouping)/average tumor volume of that treatment group at grouping] × 100%.
(§3) At the end of the experiment, upon reaching the experimental endpoint, or when the average tumor volume reached 2000 mm^3, the animals were euthanized under CO2 anesthesia, and then dissected for tumor collection and photographing.
(§4) The experimental data were analyzed and plotted using GraphPad Prism 9.4. Based on the tumor volume data of each group at different time points, Dunnett's multiple comparisons test in Two-way ANOVA was used for statistical analysis to evaluate differences among groups.
The invivoSyn method was used to analyze the synergistic effect of the combination treatment. First, based on the exponential growth model, the tumor growth rate of each mouse (eGR, exponential growth rate) and the average tumor growth rate of each group (eGRg) were calculated. Then, the relative survival rate of the treatment group and the control group was calculated by using the conditional probability formula Pr(T|C)=ST/SC, wherein SA, SB, and SAB are respectively defined as the relative survival rates of single-drug group A, single-drug group B, and the combination administration group at time point t. SA = (exp(eGRA*t))/(exp(eGRC*t)) [formula] SB = (exp(eGRB*t))/(exp(eGRC*t)) [formula] SAB = (exp(eGRAB*t))/(exp(eGRC*t)) [formula]
Based on the highest single-drug effect model (HSA, Highest Single Agent), the expected survival rate E(SAB) of the combination administration group was calculated. For the HSA model, E(SAB) = min(SA, SB). CI (Combination Index) is defined as the ratio of the observed survival rate SAB of the combination administration group to E(SAB), while the synergistic effect score (SS, Synergy Score) is defined as the percentage difference between E(SAB) and SAB. When the CI value is less than 1 or the SS value is greater than 0, the combination is considered to have a synergistic effect. p values and confidence intervals were calculated using the stratified bootstrap method (Stratified bootstrap). Table 4-1. Dosing regimen of drug A in combination with drug B in the OV0243 model

[2] = tested on: RL95-2 endometrial cancer cell mouse xenografts; assay: RL95-2 human endometrial cancer subcutaneous xenograft model; format: in vivo, nude mice
Protocol: (§5) Drug A was prepared by dilution with normal saline, and drug B was prepared using 0.5% HPMC; Human endometrial cancer cells RL95-2 were cultured in vitro in a cell incubator at 37°C and 5% CO2. Routine digestion treatment and passaging were carried out twice a week using trypsin-EDTA. When the cell confluence was 80%-90% and the number of cells reached the requirement, the cells were collected, counted, and inoculated.
(§6) RL95-2 cells were resuspended in PBS, the density after resuspension was 100 × 10^6/mL, the resuspended cells were mixed with an equal volume of Matrigel, inoculated subcutaneously into the right dorsal side of each mouse, 0.1 mL was inoculated into each mouse (5 × 10^6 cells/animal), and when the average tumor volume grew to 100-150 mm^3, grouping was carried out (D1), and administration was started on the day of grouping. The mice were administered by gavage (p.o.) once daily; the mice were administered by tail vein injection (i.v.) as a single administration; the administration volume was 10 mL/kg; the vehicle group was given the same volume of "vehicle"; the specific administration doses and administration regimens are shown in Table 5-1. Tumor volume was measured, mouse body weight was weighed, and data were recorded.
as §1
(§7) The tumor diameter was measured twice a week with a vernier caliper, and the calculation formula for tumor volume (V) was:V = 1/2×a×b^2 where a, b respectively indicate length and width.
as §2, §3
as §4, with “groups. […] Table 5-1. Dosing regimen of drug A in combination with drug B in the RL95-2 model” for “groups.”

HEC-1A cells = assay: CTG growth inhibition, drug A/drug B cross-combination, 6 days; format: cell-based, human; settings: Drug B alone, 4.12-1000.00 nM
Protocol: (§8) Tumor cells in good growth condition were seeded into 96-well plates. After overnight growth onto the wall, different concentrations of the test substances were administered, with different concentrations of the two test substances arranged in a cross-combination design.
(§9) The starting concentration of test drug A was 1000 nM, which was subjected to 1:3 serial dilution to generate a total of 6 concentration levels; the starting concentration of test drug B was set at 1000 nM, which was subjected to 1:3 serial dilution to generate a total of 6 concentration levels. After the combined test substances had acted on each cell line for 6 days, the CTG method was used to detect the in vitro proliferation inhibitory effect of the combined use of the test drugs on tumor cells. Table 2-1 Drug A and drug B treatment dosing scheme
(§10) Based on the signal values measured by the microplate reader, the cell growth inhibition rate was calculated according to the following formula: Growth inhibition rate % (growth inhibition%) = [1-(measured value-minimum value mean-background value)/(maximum value mean-background value-minimum value mean)] ×100% (measured value: reading value of compound wells; minimum value: reading value of ZPE wells (reading value of wells containing cell culture medium without cells); maximum value: reading value of HPE wells (cell reading value of the DMSO treatment group); background value: cell background measured value before addition of the compound).

OAW42 cells = assay: as above; format: cell-based, human; settings: Drug B alone, 4.12-1000.00 nM
Protocol: as §8, §9, §10

SK-OV-3 cells = assay: as above; format: cell-based, human; settings: Drug B alone, 4.12-1000.00 nM
Protocol: as §8, §9, §10

MX-1 cells = assay: as above; format: cell-based, human; settings: Drug B alone, 4.12-1000.00 nM
Protocol: as §8, §9, §10

CAL-51 cells = assay: as above; format: cell-based, human; settings: Drug B alone, 4.12-1000.00 nM
Protocol: as §8, §9, §10

EN cells = assay: as above; format: cell-based, human; settings: Drug B alone, 4.12-1000.00 nM
Protocol: as §8, §9, §10

COV362 cells = assay: as above; format: cell-based, human; settings: Drug B alone, 4.12-1000.00 nM
Protocol: as §8, §9, §10

[3] = tested on: MX-1 human breast cancer cell mouse xenografts; assay: MX-1 human breast cancer subcutaneous xenograft model; format: in vivo, Balb/c nude mice
Protocol: as §5, with “breast” for “endometrial”, “cancer MX-1” for “cancer”, “cells” for “cells RL95-2”, “cultured as a monolayer” for “cultured”, “vitro under culture conditions of DMEM/F12 medium supplemented with 10% fetal bovine serum, 100 U/mL penicillin, and 100 µg/mL streptomycin, and cultured” for “vitro”
Balb/c nude mice, female, body weight 17-25 g, were purchased from Shanghai Bi Kai Ke Yi Biotechnology Co., Ltd.
as §6, with “MX-1 cells were” for “RL95-2 cells were”, “resuspension was 100×10^6/mL, the resuspended” for “resuspension was 100 × 10^6/mL, the resuspended”, “each mouse (5×10^6 cells/animal), and” for “each mouse (5 × 10^6 cells/animal), and”, “(D1), and drug administration was” for “(D1), and administration was”, “in Table 3-1. Tumor volume” for “in Table 5-1. Tumor volume”
as §1, §7, §2, §3
as §4, with “groups. […] Table 3-1. Dosing regimen of drug A in combination with drug B in the MX-1 model” for “groups.”

[4] = D0 (at grouping), Drug B 1 mg/kg p.o. QD*28 times
[5] = D28, Drug B 1 mg/kg p.o. QD*28 times

CCc1cc2ncc(CN3CC=C(c4ccc(C(=O)NC)nc4)CC3)cc2[nH]c1=O [Drug B, 1'-((7-ethyl-6-oxo-5,6-dihydro-1,5-naphthyridin-3-yl)methyl)-N-methyl-1',2',3',6'-tetrahydro-[3,4'-bipyridine]-6-carboxamide]
Average tumor volume (mm^3) ± SEM ([1]; D0 (at grouping), Drug B 0.1 mg/kg p.o. QD*28 times): 137±2 mm^3
Average tumor volume (mm^3) ± SEM [1, 4]: 138±2 mm^3
TGI (%) ([1]; Drug B 0.1 mg/kg p.o. QD*28 times): 129.84%
TGI (%) ([1]; Drug B 1 mg/kg p.o. QD*28 times): 191.94%
Average tumor volume (mm^3) ± SEM ([1]; Day 27, Drug B 0.1 mg/kg p.o. QD*28 times): 96±14 mm^3
Average tumor volume (mm^3) ± SEM ([1]; Day 27, Drug B 1 mg/kg p.o. QD*28 times): 11±6 mm^3
Average tumor volume (mm^3) ± SEM ([1]; Day 55, Drug B 0.1 mg/kg p.o. QD*28 times): 3±3 mm^3
Average tumor volume (mm^3) ± SEM ([1]; Day 55, Drug B 1 mg/kg p.o. QD*28 times): 0±0 mm^3
Average tumor volume (mm^3) ± SEM ([1]; Day 83 (day 56 after drug withdrawal), Drug B 0.1 mg/kg p.o. QD*28 times): 78±27 mm^3
Average tumor volume (mm^3) ± SEM ([1]; Day 83 (day 56 after drug withdrawal), Drug B 1 mg/kg p.o. QD*28 times): 50±23 mm^3
tumor growth inhibition, monotherapy ([1]; OV0243 model, conclusion): significantly inhibit the growth of xenograft tumors in nude mice
tolerability ([1]; OV0243 tumor-bearing mice): could well tolerate
body weight decrease of 1 animal ([1]; drug B 0.1 mg/kg, by day 51, euthanasia): greater than 20%
body weight decrease of 1 animal ([1]; drug B 0.1 mg/kg, day 23): 17.39%
animals with partial tumor regression ([1]; drug B 0.1 mg/kg, day 27): 5/6
average body weight change rate ([1]; drug B 0.1 mg/kg, day 27): 2.18%
animals with complete tumor regression ([1]; drug B 1 mg/kg, day 27): 3/6
animals with partial tumor regression ([1]; drug B 1 mg/kg, day 27): 3/6
average body weight change rate ([1]; drug B 1 mg/kg, day 27): 3.75%
Average tumor volume (mm^3) + SEM [2, 4]: 134+7 mm^3
Average tumor volume (mm^3) + SEM [2, 5]: 1097+109 mm^3
T/C (%) [2, 5]: 95.50%
TGI (%) [2, 5]: 5.08%
tolerability ([2]; RL95-2 tumor-bearing mice): could well tolerate
tumor growth inhibition ([2]; RL95-2 xenograft mouse model): had no obvious inhibitory effect on tumor growth
Growth inhibition rate (HEC-1A cells; drug B 4.12 nM): 3.73%
Growth inhibition rate (HEC-1A cells; drug B 12.35 nM): 4.25%
Growth inhibition rate (HEC-1A cells; drug B 37.04 nM): 5.84%
Growth inhibition rate (HEC-1A cells; drug B 111.11 nM): 9.01%
Growth inhibition rate (HEC-1A cells; drug B 333.33 nM): 7.40%
Growth inhibition rate (OAW42 cells; drug B 4.12 nM): 6.29%
Growth inhibition rate (OAW42 cells; drug B 12.35 nM): 4.07%
Growth inhibition rate (OAW42 cells; drug B 37.04 nM): 6.30%
Growth inhibition rate (OAW42 cells; drug B 111.11 nM): 7.53%
Growth inhibition rate (OAW42 cells; drug B 333.33 nM): 12.46%
Growth inhibition rate (SK-OV-3 cells; drug B 4.12 nM): 3.96%
Growth inhibition rate (SK-OV-3 cells; drug B 12.35 nM): 2.49%
Growth inhibition rate (SK-OV-3 cells; drug B 37.04 nM): 2.34%
Growth inhibition rate (SK-OV-3 cells; drug B 111.11 nM): 6.14%
Growth inhibition rate (SK-OV-3 cells; drug B 333.33 nM): 9.22%
Growth inhibition rate (MX-1 cells; drug B 4.12 nM): 33.15%
Growth inhibition rate (MX-1 cells; drug B 12.35 nM): 31.24%
Growth inhibition rate (MX-1 cells; drug B 37.04 nM): 33.85%
Growth inhibition rate (MX-1 cells; drug B 111.11 nM): 40.59%
Growth inhibition rate (MX-1 cells; drug B 333.33 nM): 46.92%
Growth inhibition rate (CAL-51 cells; drug B 4.12 nM): 9.89%
Growth inhibition rate (CAL-51 cells; drug B 12.35 nM): 8.42%
Growth inhibition rate (CAL-51 cells; drug B 37.04 nM): 12.34%
Growth inhibition rate (CAL-51 cells; drug B 111.11 nM): 11.19%
Growth inhibition rate (CAL-51 cells; drug B 333.33 nM): 15.02%
Growth inhibition rate (EN cells; drug B 4.12 nM): 31.13%
Growth inhibition rate (EN cells; drug B 12.35 nM): 22.59%
Growth inhibition rate (EN cells; drug B 37.04 nM): 24.15%
Growth inhibition rate (EN cells; drug B 111.11 nM): 27.18%
Growth inhibition rate (EN cells; drug B 333.33 nM): 24.54%
Growth inhibition rate (COV362 cells; drug B 4.12 nM): 22.59%
Growth inhibition rate (COV362 cells; drug B 12.35 nM): 22.45%
Growth inhibition rate (COV362 cells; drug B 37.04 nM): 21.18%
Growth inhibition rate (COV362 cells; drug B 111.11 nM): 25.95%
Growth inhibition rate (COV362 cells; drug B 333.33 nM): 23.74%
Average tumor volume (mm^3) ± SEM ([3]; D0 (at grouping), Drug B 0.3 mg/kg): 148±7 mm^3
Average tumor volume (mm^3) ± SEM ([3]; D28, Drug B 0.3 mg/kg): 199±20 mm^3
TGI (%) ([3]; D28, Drug B 0.3 mg/kg): 97.25%
Partial regression ([3]; D28, Drug B 0.3 mg/kg, animals with partial regression/animals in group): 2/8
tolerability (body weight, death, abnormal symptoms) ([3]; MX-1 tumor-bearing mice): could well tolerate
